Measurements reported in patent US20250147039A1, “Compounds for complexation of rare earth elements and/or s-, p-, d- block metals, their coordination compounds, peptide conjugates, method of their preparation and use thereof” (USTAV ORGANICKE CHEMIE A BIOCHEMIE AV CR V.V.I., priority 2021, published 2025).

Experiments:
[1] = Formation of 1,5-cz-[M(Lig)] from Lig and M^III ions (metal dependent click-zip) (Charts 4, 5); type: physicochemical; details: MOPS/NaOH buffer pH 7.0, TD728, TD827 in 50% i-PrOH; for conversion to 1,5-cz-[M(Lig)], Y^III: TD714 sum of two diastereoisomers
[2] = Formation of 1,5-cz-[Ln(Lig)] from Lig and Ln^III ions (metal dependent click-zip), MOPS/NaOH buffer pH 7.0, analytical HPLC (Charts 1, 2); details: MOPS/NaOH buffer pH 7.0

C#CCN(CC#C)CCN1CCN(CC(=O)O)CCN(Cc2cc(-c3ccccc3)cc(CN=[N+]=[N-])n2)CCN(CC(=O)O)CC1 [TD669]
conversion to 1,5-cz-[M(Lig)], Sc^III ([1]; 1 week at 80° C.): 0% | conversion to 1,5-cz-[M(Lig)], Y^III ([1]; 1 week at 80° C.): 12% | conversion to 1,5-cz-[M(Lig)], Sc^III ([1]; 1 hour at 80° C.): 0% | conversion to 1,5-cz-[M(Lig)], Y^III ([1]; 1 hour at 80° C.): 0% | conversion to 1,5-cz-[Ln(Lig)], Ce^III ([2]; Ce^III, after 1 hour at 80° C.): 0% | conversion to 1,5-cz-[Ln(Lig)], Dy^III ([2]; after 1 week at 80° C.): 20% | conversion to 1,5-cz-[Ln(Lig)], Dy^III ([2]; after 1 hour at 80° C.): 0% | conversion to 1,5-cz-[Ln(Lig)], Er^III ([2]; after 1 week at 80° C.): 12% | conversion to 1,5-cz-[Ln(Lig)], Er^III ([2]; after 1 hour at 80° C.): 0% | conversion to 1,5-cz-[Ln(Lig)], Eu^III ([2]; after 1 week at 80° C.): 25% | conversion to 1,5-cz-[Ln(Lig)], Eu^III ([2]; after 1 hour at 80° C.): 0% | conversion to 1,5-cz-[Ln(Lig)], Gd^III ([2]; after 1 week at 80° C.): 24% | conversion to 1,5-cz-[Ln(Lig)], Gd^III ([2]; after 1 hour at 80° C.): 0% | conversion to 1,5-cz-[Ln(Lig)], Ho^III ([2]; after 1 week at 80° C.): 14% | conversion to 1,5-cz-[Ln(Lig)], Ho^III ([2]; after 1 hour at 80° C.): 0% | conversion to 1,5-cz-[Ln(Lig)], La^III ([2]; La^III, after 1 hour at 80° C.): 0% | conversion to 1,5-cz-[Ln(Lig)], Lu^III ([2]; after 1 week at 80° C.): 7% | conversion to 1,5-cz-[Ln(Lig)], Lu^III ([2]; after 1 hour at 80° C.): 0% | conversion to 1,5-cz-[Ln(Lig)], Nd^III ([2]; Nd^III, after 1 hour at 80° C.): 0% | conversion to 1,5-cz-[Ln(Lig)], Pr^III ([2]; Pr^III, after 1 hour at 80° C.): 0% | conversion to 1,5-cz-[Ln(Lig)], Sm^III ([2]; after 1 week at 80° C.): 33% | conversion to 1,5-cz-[Ln(Lig)], Sm^III ([2]; after 1 hour at 80° C.): 0% | conversion to 1,5-cz-[Ln(Lig)], Tb^III ([2]; Tb^III, after 1 hour at 80° C.): 0% | conversion to 1,5-cz-[Ln(Lig)], Tm^III ([2]; after 1 week at 80° C.): 11% | conversion to 1,5-cz-[Ln(Lig)], Tm^III ([2]; after 1 hour at 80° C.): 0% | conversion to 1,5-cz-[Ln(Lig)], Yb^III ([2]; after 1 week at 80° C.): 10% | conversion to 1,5-cz-[Ln(Lig)], Yb^III ([2]; after 1 hour at 80° C.): 0%
